According to the CheMixHub viscosity set:

Assay: xn = mol fraction of the nth substance listed

c1ccccc1 + CCCO
Conditions	viscosity [mPa·s]
293.15 K, 101 kPa, x1 = 0.7	0.7259
295.15 K, 101 kPa, x2 = 0.0129	0.6231
295.15 K, 101 kPa, x2 = 0.01297	0.6234
295.15 K, 101 kPa, x2 = 0.02571	0.6203
295.15 K, 101 kPa, x2 = 0.0258	0.6203
295.15 K, 101 kPa, x2 = 0.02588	0.6203
295.15 K, 101 kPa, x2 = 0.03494	0.6193
295.15 K, 101 kPa, x2 = 0.04358	0.6193
295.15 K, 101 kPa, x2 = 0.06103	0.6204
295.15 K, 101 kPa, x2 = 0.1016	0.6265
295.15 K, 101 kPa, x2 = 0.2458	0.6758
295.15 K, 101 kPa, x2 = 0.5664	0.9778
295.15 K, 101 kPa, x2 = 0.9204	1.808
298.15 K, 100 kPa, x2 = 0.059	0.6108
298.15 K, 100 kPa, x2 = 0.1169	0.6226
298.15 K, 100 kPa, x2 = 0.2295	0.6135
298.15 K, 100 kPa, x2 = 0.2843	0.6582
298.15 K, 100 kPa, x2 = 0.3733	0.7116
298.15 K, 100 kPa, x2 = 0.5437	0.8989
298.15 K, 100 kPa, x2 = 0.6252	1.017
298.15 K, 100 kPa, x2 = 0.7044	1.166
298.15 K, 100 kPa, x2 = 0.7814	1.289
298.15 K, 100 kPa, x2 = 0.8563	1.469
298.15 K, 100 kPa, x2 = 0.9291	1.719
298.15 K, 101 kPa, x1 = 0.062	1.707
298.15 K, 101 kPa, x1 = 0.1398	1.471
298.15 K, 101 kPa, x1 = 0.295	1.132
298.15 K, 101 kPa, x1 = 0.388	0.988
298.15 K, 101 kPa, x1 = 0.4349	0.565
298.15 K, 101 kPa, x1 = 0.4661	0.887
298.15 K, 101 kPa, x1 = 0.5335	0.394
298.15 K, 101 kPa, x1 = 0.5337	0.805
298.15 K, 101 kPa, x1 = 0.6049	0.741
298.15 K, 101 kPa, x1 = 0.6086	0.4578
298.15 K, 101 kPa, x1 = 0.7128	0.657
298.15 K, 101 kPa, x1 = 0.806	0.626
298.15 K, 101 kPa, x1 = 0.89	0.604
298.15 K, 101.3 kPa, x1 = 0.1571	1.435
298.15 K, 101.3 kPa, x1 = 0.3573	1.018
298.15 K, 101.3 kPa, x1 = 0.5287	0.797
298.15 K, 101.3 kPa, x1 = 0.7516	0.637
298.15 K, 101.33 kPa, x1 = 0.1571	1.435
298.15 K, 101.33 kPa, x1 = 0.2757	1.167
298.15 K, 101.33 kPa, x1 = 0.3573	1.018
298.15 K, 101.33 kPa, x1 = 0.5287	0.797
298.15 K, 101.33 kPa, x1 = 0.6446	0.703
298.15 K, 101.33 kPa, x1 = 0.7516	0.637
298.15 K, 101.33 kPa, x1 = 0.8737	0.599
298.15 K, 101.33 kPa, x1 = 0.9369	0.592
298.15 K, 101.33 kPa, x2 = 0.2	0.622
303.15 K, 101 kPa, x1 = 0.062	1.522
303.15 K, 101 kPa, x1 = 0.1398	1.319
303.15 K, 101 kPa, x1 = 0.295	1.021
303.15 K, 101 kPa, x1 = 0.388	0.892
303.15 K, 101 kPa, x1 = 0.4661	0.808
303.15 K, 101 kPa, x1 = 0.5337	0.737
303.15 K, 101 kPa, x1 = 0.6049	0.68
303.15 K, 101 kPa, x1 = 0.7128	0.609
303.15 K, 101 kPa, x1 = 0.806	0.58
303.15 K, 101 kPa, x1 = 0.89	0.566
308.15 K, 100 kPa, x2 = 0.059	0.5422
308.15 K, 100 kPa, x2 = 0.1169	0.5507
308.15 K, 100 kPa, x2 = 0.2295	0.5825
308.15 K, 100 kPa, x2 = 0.2843	0.5616
308.15 K, 100 kPa, x2 = 0.3733	0.6014
308.15 K, 100 kPa, x2 = 0.5437	0.7483
308.15 K, 100 kPa, x2 = 0.6252	0.8508
308.15 K, 100 kPa, x2 = 0.7044	0.9663
308.15 K, 100 kPa, x2 = 0.7814	1.098
308.15 K, 100 kPa, x2 = 0.8563	1.267
308.15 K, 100 kPa, x2 = 0.9291	1.405
308.15 K, 101 kPa, x1 = 0.062	1.369
308.15 K, 101 kPa, x1 = 0.1398	1.182
308.15 K, 101 kPa, x1 = 0.295	0.921
308.15 K, 101 kPa, x1 = 0.388	0.81
308.15 K, 101 kPa, x1 = 0.4661	0.736
308.15 K, 101 kPa, x1 = 0.5337	0.678
308.15 K, 101 kPa, x1 = 0.6049	0.63
308.15 K, 101 kPa, x1 = 0.7128	0.566
308.15 K, 101 kPa, x1 = 0.806	0.541
308.15 K, 101 kPa, x1 = 0.89	0.527
308.15 K, 101.3 kPa, x1 = 0.1571	1.155
308.15 K, 101.3 kPa, x1 = 0.3573	0.834
308.15 K, 101.3 kPa, x1 = 0.5287	0.668
308.15 K, 101.3 kPa, x1 = 0.7516	0.552
308.15 K, 101.33 kPa, x1 = 0.1571	1.155
308.15 K, 101.33 kPa, x1 = 0.3573	0.834
308.15 K, 101.33 kPa, x1 = 0.5287	0.668
308.15 K, 101.33 kPa, x1 = 0.7516	0.552
313.15 K, 101 kPa, x1 = 0.062	1.225
313.15 K, 101 kPa, x1 = 0.1398	1.061
313.15 K, 101 kPa, x1 = 0.295	0.835
313.15 K, 101 kPa, x1 = 0.388	0.739
313.15 K, 101 kPa, x1 = 0.4661	0.674
313.15 K, 101 kPa, x1 = 0.5337	0.623
313.15 K, 101 kPa, x1 = 0.6049	0.582
313.15 K, 101 kPa, x1 = 0.7	0.5283
313.15 K, 101 kPa, x1 = 0.7128	0.528
313.15 K, 101 kPa, x1 = 0.806	0.503
313.15 K, 101 kPa, x1 = 0.89	0.493
318.15 K, 101 kPa, x1 = 0.062	1.103
318.15 K, 101 kPa, x1 = 0.1398	0.956
318.15 K, 101 kPa, x1 = 0.295	0.76
318.15 K, 101 kPa, x1 = 0.388	0.676
318.15 K, 101 kPa, x1 = 0.4661	0.617
318.15 K, 101 kPa, x1 = 0.5337	0.572
318.15 K, 101 kPa, x1 = 0.6049	0.539
318.15 K, 101 kPa, x1 = 0.7128	0.493
318.15 K, 101 kPa, x1 = 0.806	0.47
318.15 K, 101 kPa, x1 = 0.89	0.463
323.15 K, 101.33 kPa, x2 = 0.2	0.44
